# Reference: paper PMC10460844, “Real‐Time Monitoring of Multitarget Antimicrobial Mechanisms of Peptoids Using Label‐Free Imaging with Optical Diffraction Tomography” (Advanced Science, 2023)
# Numbered stars: 1 amine (or outer) side, 2 acyl side, 3 side chain; on linkers, the order of the positions; unused ones are H or OH. Square brackets hold non-standard residues; d marks the D form. Peptide text beside a SMILES is read from it. Gly(N(CH2)2(3-indolyl)) = O=C(O)CNCCc1c[nH]c2ccccc12; Nspe = C[C@H](NCC(=O)O)c1ccccc1; X1 = O=C(CN(CCCCO)[*:1])[*:2]; Nlys = NCCCCNCC(=O)O
# Legend:
# [1] = Analytical reversed-phase HPLC elution (hydrophobicity); assay type: physicochemical; details: Table S1; analytical RP-HPLC, SunFire C18, water/ACN + 0.1% TFA, 5 to 100% B linear over 30 min, 1 mL/min, UV 220 nm; approximate comparison of hydrophobicity
# Procedure: 7. HPLC chromatogram, retention time (tR), and LC-MS data
# HPLC analysis of peptoids was conducted using a Waters HPLC system equipped with a Waters 2489 UV/Visible Detector, 1525 Binary HPLC Pump, 2707 Autosampler, 5CH column oven, and a C18 column (SunFire C18, 4.6 × 250 mm, 5 μm; Waters Corp., Milford, MA, USA). The mobile phases were deionized water (A, with + 0.1% TFA) and acetonitrile (ACN; B, with + 0.1% TFA). Before sample injection, the column was conditioned with 5% B for 10 min. Then, the mobile phase was maintained at 5% B for 2 min, followed by increasing B to 100% using a linear gradient over 30 min. At this point, 100% B was maintained for 5 additional min. The flow rate of the mobile phase was 1 mL/min. The sample was detected by measuring absorbance at 220 nm. […]
# [2] = system: rat erythrocytes; assay: Hemolysis assay; assay type: cell-based; details: for HC10 / HC50: pH 7.4
# Procedure: The hemolysis assay was performed using rat erythrocytes in phosphate‐buffered saline (PBS), as reported by Mendes et al.^[ [45] ^] Animal studies were approved by the Laboratory Animal Resource Center of Gwangju Institute of Science and Technology. Blood was collected from a 13‐week‐old male Sprague‐Dawley rat in tubes containing 158 USP units of sodium heparin to prevent coagulation and centrifuged at 1000 rpm for 10 min at 4 °C. Plasma was removed carefully and erythrocyte pellets were washed three times with PBS (35 mM phosphate, pH 7.4, 150 mM NaCl). Next, 150 µL of a 10% erythrocyte suspension was mixed with 50 µL of serially diluted peptoids (0–100 µM) in a 96‐well black polypropylene plates (Greiner, Kremsmünster, Austria). Untreated erythrocytes and cells lysed by the addition of 1% Triton X‐100 were used as negative and positive controls, respectively, with the 1% Triton X‐100‐treated wells being accepted to represent 100% hemolysis. The reaction mixture was incubated at 37 °C for 60 min, and the plates were centrifuged at 1000 rpm for 15 min. Aliquots (150 µL) of the supernatant were transferred to fresh 96‐well plates, and the absorbance of each well was measured at 540 nm using a microplate reader. Hemolysis induced by peptoids was calculated as the percentage value of Triton X‐100 lysed cells. The percentage of hemolysis by the extracts was calculated according to the following formula: % hemolysis = [(Abs 540 nm in the peptoid solution – Abs 540 nm in PBS) / (Abs 540 nm in 1% Triton X‐100 – Abs 540 nm in PBS)] × 100. HC10 and HC50 were defined as the peptoid concentrations that caused 10% and 50% hemolysis in rat erythrocytes, respectively. H max indicates the percentage of hemolysis observed at the maximum peptoid concentration, 100 µM throughout this study.
HPLC elution [1],Structure (SMILES),Hmax (100 µM) [2],HC10 [2],HC50 [2]
46.6 % MeCN,C[C@@H](c1ccccc1)N(CC(=O)N(CCCCN)CC(=O)N(CC(=O)N(CC(=O)N(CCCCN)CC(=O)N(CC(=O)N(CC(=O)N(CCCCN)CC(=O)N(CCCCN)CC(N)=O)[C@@H](C)c1ccccc1)[C@@H](C)c1ccccc1)[C@@H](C)c1ccccc1)[C@@H](C)c1ccccc1)C(=O)CN(C(=O)CNCCCCN)[C@@H](C)c1ccccc1 [peptoid 49] (H-[Nlys][Nspe][Nspe][Nlys][Nspe][Nspe][Nlys][Nspe][Nspe][Nlys][Nlys]-NH2),0.3±0.3%,> 100 µM,> 100 µM
48.6 % MeCN,C[C@@H](c1ccccc1)N(CC(=O)N(CCCCN)CC(=O)N(CCCCN)CC(=O)N(CCc1c[nH]c2ccccc12)CC(=O)N(CCc1c[nH]c2ccccc12)CC(N)=O)C(=O)CN(CCCCN)C(=O)CN(C(=O)CN(C(=O)CN(CCCCN)C(=O)CN(C(=O)CN(C(=O)CNCCCCN)[C@@H](C)c1ccccc1)[C@@H](C)c1ccccc1)[C@@H](C)c1ccccc1)[C@@H](C)c1ccccc1 [peptoid 28] (H-[Nlys][Nspe][Nspe][Nlys][Nspe][Nspe][Nlys][Nspe][Nlys][Nlys][Gly(N(CH2)2(3-indolyl))][Gly(N(CH2)2(3-indolyl))]-NH2),8.9±1.4%,> 100 µM,> 100 µM
47.2 % MeCN,C[C@H](NCC(=O)N(CCCCN)CC(=O)N(CC(=O)N(CC(=O)N(CCCCN)CC(=O)N(CCCCN)CC(=O)N(CC(=O)N(CCCCN)CC(=O)N(CC(=O)N(CC(=O)N(CCCCN)CC(=O)N(CC(N)=O)[C@@H](C)c1ccccc1)[C@@H](C)c1ccccc1)[C@@H](C)c1ccccc1)[C@@H](C)c1ccccc1)[C@@H](C)c1ccccc1)[C@@H](C)c1ccccc1)c1ccccc1 [peptoid 55] (H-[Nspe][Nlys][Nspe][Nspe][Nlys][Nlys][Nspe][Nlys][Nspe][Nspe][Nlys][Nspe]-NH2),–,–,–
48.7 % MeCN,C[C@@H](c1ccccc1)N(CC(N)=O)C(=O)CN(CCCCN)C(=O)CN(C(=O)CN(CCCCN)C(=O)CN(CCCCN)C(=O)CN(C(=O)CN(C(=O)CN(CCCCN)C(=O)CN(C(=O)CN(C(=O)CN(CCCCN)C(=O)CNCCc1c[nH]c2ccccc12)[C@@H](C)c1ccccc1)[C@@H](C)c1ccccc1)[C@@H](C)c1ccccc1)[C@@H](C)c1ccccc1)[C@@H](C)c1ccccc1 [peptoid 58],–,–,–
48.6 % MeCN,C[C@@H](c1ccccc1)N(CC(N)=O)C(=O)CN(CCCCN)C(=O)CN(C(=O)CN(C(=O)CN(CCCCN)C(=O)CN(C(=O)CN(C(=O)CN(CCCCN)C(=O)CN(C(=O)CN(CCCCN)C(=O)CN(CCCCN)C(=O)CNCCc1c[nH]c2ccccc12)[C@@H](C)c1ccccc1)[C@@H](C)c1ccccc1)[C@@H](C)c1ccccc1)[C@@H](C)c1ccccc1)[C@@H](C)c1ccccc1 [peptoid 60],–,–,–
66.7 % MeCN,NC(=O)CN(CCc1c[nH]c2ccccc12)C(=O)CN(CCc1c[nH]c2ccccc12)C(=O)CN(CCCCO)C(=O)CN(CCc1c[nH]c2ccccc12)C(=O)CN(CCc1c[nH]c2ccccc12)C(=O)CN(CCCCO)C(=O)CN(CCc1c[nH]c2ccccc12)C(=O)CN(CCc1c[nH]c2ccccc12)C(=O)CN(CCCCO)C(=O)CN(CCc1c[nH]c2ccccc12)C(=O)CN(CCc1c[nH]c2ccccc12)C(=O)CNCCCCO [peptoid 65] (H-[X1][Gly(N(CH2)2(3-indolyl))][Gly(N(CH2)2(3-indolyl))][X1][Gly(N(CH2)2(3-indolyl))][Gly(N(CH2)2(3-indolyl))][X1][Gly(N(CH2)2(3-indolyl))][Gly(N(CH2)2(3-indolyl))][X1][Gly(N(CH2)2(3-indolyl))][Gly(N(CH2)2(3-indolyl))]-NH2),–,–,–
48.0 % MeCN,C[C@H](NCC(=O)N(CCCCN)CC(=O)N(CCCCN)CC(=O)N(CC(=O)N(CCCCN)CC(=O)N(CC(=O)N(CC(=O)N(CCCCN)CC(=O)N(CC(=O)N(CC(=O)N(CCCCN)CC(=O)N(CC(N)=O)[C@@H](C)c1ccccc1)[C@@H](C)c1ccccc1)[C@@H](C)c1ccccc1)[C@@H](C)c1ccccc1)[C@@H](C)c1ccccc1)[C@@H](C)c1ccccc1)c1ccccc1 [peptoid 56] (H-[Nspe][Nlys][Nlys][Nspe][Nlys][Nspe][Nspe][Nlys][Nspe][Nspe][Nlys][Nspe]-NH2),–,–,–
45.3 % MeCN,C[C@@H](c1ccccc1)N(CC(N)=O)C(=O)CN(CCCCN)C(=O)CN(C(=O)CN(C(=O)CN(CCCCN)C(=O)CN(C(=O)CN(CCCCN)C(=O)CN(CCCCN)C(=O)CN(C(=O)CN(C(=O)CNCCCCN)[C@@H](C)c1ccccc1)[C@@H](C)c1ccccc1)[C@@H](C)c1ccccc1)[C@@H](C)c1ccccc1)[C@@H](C)c1ccccc1 [peptoid 51],–,–,–
48.5 % MeCN,C[C@H](NCC(=O)N(CCCCN)CC(=O)N(CC(=O)N(CC(=O)N(CCCCN)CC(=O)N(CC(=O)N(CC(=O)N(CCCCN)CC(=O)N(CC(=O)N(CC(=O)N(CCCCN)CC(=O)N(CCCCN)CC(N)=O)[C@@H](C)c1ccccc1)[C@@H](C)c1ccccc1)[C@@H](C)c1ccccc1)[C@@H](C)c1ccccc1)[C@@H](C)c1ccccc1)[C@@H](C)c1ccccc1)c1ccccc1 [peptoid 53] (H-[Nspe][Nlys][Nspe][Nspe][Nlys][Nspe][Nspe][Nlys][Nspe][Nspe][Nlys][Nlys]-NH2),–,–,–
46.1 % MeCN,C[C@@H](c1ccccc1)N(CC(N)=O)C(=O)CN(CCCCN)C(=O)CN(C(=O)CN(CCCCN)C(=O)CN(CCCCN)C(=O)CN(C(=O)CN(C(=O)CN(CCCCN)C(=O)CN(C(=O)CN(C(=O)CNCCCCN)[C@@H](C)c1ccccc1)[C@@H](C)c1ccccc1)[C@@H](C)c1ccccc1)[C@@H](C)c1ccccc1)[C@@H](C)c1ccccc1 [peptoid 50],–,–,–
48.1 % MeCN,C[C@H](NCC(=O)N(CCCCN)CC(=O)N(CC(=O)N(CC(=O)N(CCCCN)CC(=O)N(CC(=O)N(CC(=O)N(CCCCN)CC(=O)N(CCCCN)CC(=O)N(CC(=O)N(CCCCN)CC(=O)N(CC(N)=O)[C@@H](C)c1ccccc1)[C@@H](C)c1ccccc1)[C@@H](C)c1ccccc1)[C@@H](C)c1ccccc1)[C@@H](C)c1ccccc1)[C@@H](C)c1ccccc1)c1ccccc1 [peptoid 54] (H-[Nspe][Nlys][Nspe][Nspe][Nlys][Nspe][Nspe][Nlys][Nlys][Nspe][Nlys][Nspe]-NH2),–,–,–
47.8 % MeCN,C[C@@H](c1ccccc1)N(CC(N)=O)C(=O)CN(CCCCN)C(=O)CN(C(=O)CN(C(=O)CN(CCCCN)C(=O)CN(C(=O)CN(CCCCN)C(=O)CN(CCCCN)C(=O)CN(C(=O)CN(C(=O)CN(CCCCN)C(=O)CNCCc1c[nH]c2ccccc12)[C@@H](C)c1ccccc1)[C@@H](C)c1ccccc1)[C@@H](C)c1ccccc1)[C@@H](C)c1ccccc1)[C@@H](C)c1ccccc1 [peptoid 59],–,–,–
46.9 % MeCN,C[C@@H](c1ccccc1)N(CC(N)=O)C(=O)CN(CCCCN)C(=O)CN(C(=O)CN(C(=O)CN(CCCCN)C(=O)CN(C(=O)CN(C(=O)CN(CCCCN)C(=O)CN(C(=O)CN(CCCCN)C(=O)CNCCCCN)[C@@H](C)c1ccccc1)[C@@H](C)c1ccccc1)[C@@H](C)c1ccccc1)[C@@H](C)c1ccccc1)[C@@H](C)c1ccccc1 [peptoid 52],–,–,–
64.7 % MeCN,C[C@@H](c1ccccc1)N(CC(=O)N(CCCCO)CC(=O)N(CCc1c[nH]c2ccccc12)CC(=O)N(CCc1c[nH]c2ccccc12)CC(N)=O)C(=O)CN(CCCCO)C(=O)CN(CCCCO)C(=O)CN(C(=O)CN(C(=O)CN(CCCCO)C(=O)CN(C(=O)CN(C(=O)CNCCCCO)[C@@H](C)c1ccccc1)[C@@H](C)c1ccccc1)[C@@H](C)c1ccccc1)[C@@H](C)c1ccccc1 [peptoid 66],–,–,–
49.1 % MeCN,C[C@@H](c1ccccc1)N(CC(=O)N(CCCCN)CC(=O)N(CC(=O)N(CC(=O)N(CCCCN)CC(=O)N(CC(=O)N(CC(=O)N(CCCCN)CC(=O)N(CCCCN)CC(N)=O)[C@@H](C)c1ccccc1)[C@@H](C)c1ccccc1)[C@@H](C)c1ccccc1)[C@@H](C)c1ccccc1)C(=O)CN(C(=O)CN(CCCCN)C(=O)CNCCc1c[nH]c2ccccc12)[C@@H](C)c1ccccc1 [peptoid 57] (H-[Gly(N(CH2)2(3-indolyl))][Nlys][Nspe][Nspe][Nlys][Nspe][Nspe][Nlys][Nspe][Nspe][Nlys][Nlys]-NH2),–,–,–
